This is an account of results in patent US20260200849A1, “CATIONIC LIPIDS AND PREPARATION METHOD THEREOF” (RiboX Therapeutics HK Limited, priority 2024, published 2026).

In one data set the test system is hEPO. Briefly: In vivo expression by IM: serum hEPO concentration by ELISA. Conditions: IM 0.075 mg/kg, male C57BL/6J mice N=3, Formulation 001, RNA 019. As to the method:
Circular RNA payloads were suspended in 25 mM Acetate Buffer (pH 4.5). To form LNPs, three volumes of human erythropoietin (hEPO) encoding cirRNA (SEQ ID NO:2), were mixed with one volume of lipids in ethanol solution by microfluidic mixing with the INano™ L+ (Micro& Nano) at a flow rate of 12 ml/min. The molar ratio of ionizable lipid to ribonucleotide was 6. After encapsulation, the particles were dialyzed twice against PBS. The LNP formulation was concentrated to targeted RNA concentration by Amicon® Ultra Centrifugal Filter (100 kDa MWCO) and filtered by a 0.65/0.22 um sterile filter.
6-8 week old, male C57BL/6J mice (N=3) were injected with 0.075 mg*kg−1 of RNA-LNPs encoding for hEPO by intramuscular injection. At 2-/6-/24-/48-/72 h-hours post injection, about 80 μL blood will be harvested and immediately added to the procoagulant containing tube. Stand for 30 min at room temperature and then centrifuged at 2500 g×10 min to obtain serum. About 30 μL serum samples will be aliquoted for hEPO concentration detection by ELISA kit (STEMCELL Technologies).
On the technique in general: An ELISA detects its analyte on a solid surface through an enzyme-linked reagent.

Data set [1] concerns C57BL/6J mice. As to the kind of experiment: In vivo expression by IM, luciferase RNA-LNPs, whole-body/injection site muscle/organ luminescence. The conditions noted are these: IM 1.0 mg/kg, 24 h post injection, male C57BL/6J mice N=3, Formulation 001, RNA 331. As to the method:
6-8 week old, male C57BL/6J mice (N=3) were injected with 1.0 mg*kg−1 of RNA-LNPs encoding for firefly-luciferase by intramuscular injection. At 24-hours post injection, animals were intraperitoneally injected with 15 mg/ml of Luciferin substrate and whole-body/injection site muscle/liver/spleen/kidney/heart/lung luminescence were determined by a bioluminescent in vivo imaging system (IVIS).

Data set [2] has as its system IL-6. Briefly: In vivo tolerability by IM: serum IL-6 by Luminex. Conditions: IM 1.0 mg/kg, male C57BL/6J mice N=3, Formulation 001, RNA 331. As to the method: 6-8 week old, male C57BL/6J mice (N=3) were injected with 1.0 mg*kg−1 of RNA-LNPs encoding for firefly-luciferase by intramuscular injection. At 2- and 24-hours post injection, about 40 μL blood was harvested and immediately added to the procoagulant containing tube. Stand for 30 min at room temperature and then centrifuged at 2500 g×10 min to obtain serum. About 15 μL serum samples were aliquoted for cytokine (MCP-1 and IL-6) detection by Luminex (ProcartaPlex Mouse 2-plex, Thermo). PBS group as negative control.

The test system of data set [3] is IL-6. Briefly: In vivo tolerability by IV: serum IL-6 by Luminex. On the set-up: species or system C57BL/6J mice. The conditions noted are these: Formulation No. 001, RNA No. 331, male C57BL/6J mice, 1.0 mg*kg/1 intravenous. The procedure, abridged: (§1)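 Male C57BL/6J mice aged 6-8 weeks (N=3) received 1.0 mg*kg−1 firefly-luciferase RNA-LNPs intravenously, with PBS as negative control. Serum taken at 2 and 24 h post-injection was assayed for MCP-1 and IL-6 by Luminex.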

The next data set has as its system MCP-1. Briefly: In vivo tolerability by IV: serum MCP-1 by Luminex. On the set-up: species or system C57BL/6J mice. Conditions: Formulation No. 001, RNA No. 331, male C57BL/6J mice, 1.0 mg*kg/1 intravenous. The gist of the method:
as §1

Data set [4] has as its system C57BL/6J mice. Briefly: In vivo expression by IV, 1.0 mg/kg luciferase RNA-LNPs, whole-body and organ IVIS luminescence. The conditions noted are these: Formulation No. 001, RNA No. 331; male C57BL/6J mice, 1.0 mg*kg−1 intravenous, 24-hours post injection. The gist of the method:
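Male C57BL/6J mice, 6-8 weeks old (N=3), received 1.0 mg*kg−1 firefly-luciferase RNA-LNPs IV. At 24 h post-dose, luciferin (15 mg/ml) was given IP, and whole-body, liver, spleen, kidney, small and large intestine luminescence was imaged by IVIS.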

As for `CCCCC/C=C\C/C=C\CCCCCCCC(=O)NC(COC(=O)NCCN1CCCCC1)C(=O)OCCCCCCCC(=O)OC(CCCCCCCC)CCCCCCCC` (stereo not drawn) [Lipid 549], in the data set with hEPO (2 h), the “hEPO conc. (ng/mL) at 2 h” value is reported as 2.47 ng/mL. Further, the “hEPO conc. (ng/mL) at 6 h” value in the data set with hEPO (6 h) turned out to be 7.26 ng/mL. The “hEPO conc. (ng/mL) at 24 h” value with hEPO (24 h) turned out to be 12.57 ng/mL. Further, the “hEPO conc. (ng/mL) at 48 h” value with hEPO (48 h) stood at 2.61 ng/mL. Moreover, the “hEPO conc. (ng/mL) at 72 h” value with hEPO (72 h) is reported as 0.87 ng/mL. In addition, in the data set on C57BL/6J mice [1], the “Heart (p/s)” value stood at 8.09E+05 p/s, the “Injection site muscle (p/s)” value came to 2.75E+08 p/s, the “Kidney (p/s)” value came out at 1.23E+07 p/s and the “Liver (p/s)” value was determined as 1.76E+08 p/s. Besides, in the data set with C57BL/6J mice [1], the “Lung (p/s)” value turned out to be 1.24E+06 p/s, the “Spleen (p/s)” value is listed as 6.26E+07 p/s and the “Whole body (p/s)” value was 1.10E+09 p/s. Also, in the data set on IL-6 [2], the “IL-6 at 2 h” value turned out to be 27 pg/mL and the “IL-6 at 24 h” value was 146 pg/mL.
Take `CCCCCCCC/C=C\CCCCCCCC(=O)NC(COC(=O)NCCN1CCCCC1)C(=O)OCCCCCCCCOC(=O)C(CCCCCC)CCCCCCCC` (stereo not drawn) [Lipid 700]: in the data set with C57BL/6J mice [1], the “Heart (p/s)” value is recorded as 1.79E+05 p/s, the “Injection site muscle (p/s)” value is given as 3.07E+08 p/s, the “Kidney (p/s)” value was found to be 9.03E+05 p/s and the “Liver (p/s)” value is listed as 8.73E+07 p/s. Further, in the data set with C57BL/6J mice [1], the “Lung (p/s)” value stood at 3.11E+05 p/s, the “Spleen (p/s)” value turned out to be 1.21E+07 p/s and the “Whole body (p/s)” value is listed as 5.65E+08 p/s. For the same molecule, in the data set on IL-6 [2], the “IL-6 at 2 h” value turned out to be 15 pg/mL and the “IL-6 at 24 h” value is 143 pg/mL.
For the molecule `CCCCCCCCC(CCCCCC)C(=O)OCCCCCCCCOC(=O)NC(COC(=O)NCCN1CCCCC1)C(=O)OCCCCCCCCOC(=O)C(CCCCCC)CCCCCCCC` (stereo not drawn) [Lipid 888], the “IL-6 at 2 h” value in the data set with IL-6 [3] (2 hours post injection) was determined as 5.5 pg/mL. Moreover, the “IL-6 at 24 h” value in the data set with IL-6 [3] (24 hours post injection) is 5.71 pg/mL. For the same molecule, the “MCP-1 at 2 h” value in the data set with MCP-1 (2 hours post injection) stood at 396 pg/mL. The “MCP-1 at 24 h” value in the data set with MCP-1 (24 hours post injection) came to 206 pg/mL. For the same molecule, in the data set on C57BL/6J mice [4], the “Kidney (p/s)” value is 2.72E+07 p/s, the “Large intestine (p/s)” value is on record as 1.07E+08 p/s, the “Liver (p/s)” value came to 4.61E+09 p/s and the “Small intestine (p/s)” value is 8.59E+08 p/s. Moreover, in the data set on C57BL/6J mice [4], the “Spleen (p/s)” value is 2.55E+08 p/s and the “Whole body (p/s)” value is 4.10E+09 p/s.
